Experiments:
APP = test: Oral tolfenamic acid in mice, Western blot analysis of APP in brain; type: in vivo, mice (C57BL/6); conditions: oral gavage 10 or 50 mg/Kg in corn oil on alternate days, ratio to housekeeping gene, both doses combined (FIG. 6B)
Protocol: The Oral Administration of Tolfenamic acid to mice lowers SP1, APP, and Aβ levels in the brain (See FIG. 6). Mice were dosed on alternate days by oral gavage with 10 or 50 mg/Kg of tolfenamic acid in corn oil or vehicle alone. Tolfenamic acid (TFA) lowered APP levels by about 50% and Aβ by about 20%. […] FIG. 6A is a representative Western blot of SP1. FIG. 6B is a Western blot analysis of APP expressed as a ratio of a housekeeping gene, FIG. 6C is Aβ analysis by ELISA. Each bar represents the mean of data obtained from 6-9 animals. Data from both doses was combined after statistical analysis. Values marked with an ‘*’ are statistically significant, p<0.0.5. Animal Exposure: Adult mice (C57BL/6) were obtained from Jackson labs (Maine). They were divided into 2 groups viz., Con (C), drug treated (D). The drug, toelfenamic acid was dissolved in corn oil and administered at various concentrations from 10 mg/Kg to 100 mg/Kg in corn oil by oral gavage. Control mice were dosed with corn oil only. Treatment was given on alternate days for one month. At the end of the exposure period the animals were decapitated following exposure to CO2 and hypothermia and various brain regions were isolated and stored at −70° C. This protocol has been approved by the IACUC of the University of Rhode Island. […]

Aβ = test: Oral tolfenamic acid in mice, Aβ analysis by ELISA in brain; type: in vivo, mice (C57BL/6); conditions: oral gavage 10 or 50 mg/Kg in corn oil on alternate days, both doses combined (FIG. 6C)
Protocol: The Oral Administration of Tolfenamic acid to mice lowers SP1, APP, and Aβ levels in the brain (See FIG. 6). Mice were dosed on alternate days by oral gavage with 10 or 50 mg/Kg of tolfenamic acid in corn oil or vehicle alone. Tolfenamic acid (TFA) lowered APP levels by about 50% and Aβ by about 20%. […] FIG. 6A is a representative Western blot of SP1. FIG. 6B is a Western blot analysis of APP expressed as a ratio of a housekeeping gene, FIG. 6C is Aβ analysis by ELISA. Each bar represents the mean of data obtained from 6-9 animals. Data from both doses was combined after statistical analysis. Values marked with an ‘*’ are statistically significant, p<0.0.5. Animal Exposure: Adult mice (C57BL/6) were obtained from Jackson labs (Maine). They were divided into 2 groups viz., Con (C), drug treated (D). The drug, toelfenamic acid was dissolved in corn oil and administered at various concentrations from 10 mg/Kg to 100 mg/Kg in corn oil by oral gavage. Control mice were dosed with corn oil only. Treatment was given on alternate days for one month. […] ELISA Assays: Aβ-40 and Aβ-42 levels were measured using a combination of monoclonal antibody (mAb) 6E10 (specific to an epitope present on 1-16 amino acid residues of Aβ) and R162, and R164 respectively in a double-antibody sandwich ELISA (Mehta et al., 1998; Morishima-Kawashima et al., 2000; Basha et al., 2005).

Sp1, Sp3 and Sp4 = conditions: pancreatic cancer cells and tumors; background statement; cited from earlier work
SP1 = target: T1, SP1 (Mus musculus, UniProt O89090); test: Oral tolfenamic acid in mice, Western blot of SP1 in brain; type: in vivo, mice (C57BL/6); conditions: oral gavage 10 or 50 mg/Kg in corn oil on alternate days, Western blot (FIG. 6A)
T1 construct: various brain regions were isolated and stored at −70° C; from tissue; host or cells: brain of adult C57BL/6 mice
T1 sequence (O89090 whole entry): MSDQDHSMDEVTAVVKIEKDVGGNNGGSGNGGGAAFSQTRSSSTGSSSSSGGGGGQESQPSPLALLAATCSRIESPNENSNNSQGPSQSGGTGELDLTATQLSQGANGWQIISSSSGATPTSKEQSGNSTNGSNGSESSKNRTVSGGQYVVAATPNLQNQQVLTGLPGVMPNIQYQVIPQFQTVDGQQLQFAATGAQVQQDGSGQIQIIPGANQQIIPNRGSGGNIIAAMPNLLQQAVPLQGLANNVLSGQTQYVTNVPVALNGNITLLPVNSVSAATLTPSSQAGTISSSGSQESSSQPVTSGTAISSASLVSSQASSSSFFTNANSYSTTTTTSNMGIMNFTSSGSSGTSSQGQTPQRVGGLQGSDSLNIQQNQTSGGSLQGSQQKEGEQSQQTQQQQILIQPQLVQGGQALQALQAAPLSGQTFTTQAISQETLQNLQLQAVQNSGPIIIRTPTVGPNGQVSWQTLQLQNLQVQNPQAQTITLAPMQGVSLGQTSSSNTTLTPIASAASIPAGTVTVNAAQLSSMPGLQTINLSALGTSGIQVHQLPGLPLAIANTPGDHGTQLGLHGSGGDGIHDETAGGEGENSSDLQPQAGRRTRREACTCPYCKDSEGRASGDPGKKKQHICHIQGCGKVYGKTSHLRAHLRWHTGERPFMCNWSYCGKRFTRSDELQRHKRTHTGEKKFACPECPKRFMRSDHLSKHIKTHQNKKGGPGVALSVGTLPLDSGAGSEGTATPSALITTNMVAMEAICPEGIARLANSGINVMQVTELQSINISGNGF
Protocol: The Oral Administration of Tolfenamic acid to mice lowers SP1, APP, and Aβ levels in the brain (See FIG. 6). Mice were dosed on alternate days by oral gavage with 10 or 50 mg/Kg of tolfenamic acid in corn oil or vehicle alone. Tolfenamic acid (TFA) lowered APP levels by about 50% and Aβ by about 20%. […] FIG. 6A is a representative Western blot of SP1. FIG. 6B is a Western blot analysis of APP expressed as a ratio of a housekeeping gene, FIG. 6C is Aβ analysis by ELISA. Each bar represents the mean of data obtained from 6-9 animals. Data from both doses was combined after statistical analysis. Values marked with an ‘*’ are statistically significant, p<0.0.5.
Animal Exposure: Adult mice (C57BL/6) were obtained from Jackson labs (Maine). They were divided into 2 groups viz., Con (C), drug treated (D). The drug, toelfenamic acid was dissolved in corn oil and administered at various concentrations from 10 mg/Kg to 100 mg/Kg in corn oil by oral gavage. Control mice were dosed with corn oil only. Treatment was given on alternate days for one month. At the end of the exposure period the animals were decapitated following exposure to CO2 and hypothermia and various brain regions were isolated and stored at −70° C. This protocol has been approved by the IACUC of the University of Rhode Island. […]

SP1 levels in the brain (SP1): lowers
SMILES: Cc1c(Cl)cccc1Nc1ccccc1C(=O)O [Tolfenamic acid]
lowering of APP levels (APP): about 50%
lowering of Aβ levels (Aβ): about 20%
degradation of Sp1, Sp3 and Sp4 (Sp1, Sp3 and Sp4): can induce proteasome-dependent degradation of Sp1, Sp3 and Sp4
